Data: patent publication US20210346461A1, “UTILIZATION OF ENDOGENOUS OUBAIN-REGULATING COMPOUNDS AND COMPOSITIONS THEREOF IN TREATMENT OF VASCULAR DISEASE” (priority 2020, published 2021)
Entries after “also recorded” stand apart in the source; their conditions may differ. Where two headings read alike, the source gives them in different places.

What was measured:
Cyclooxygenase (COX) = settings: pharmacological blockade of COX; cited from earlier work
[1] = tested on: pregnant uterine arteries; assay: PGI2 release/response in pregnant uterine arteries; type: cell-based
From the text: FIG. 1A is a graph of laboratory data indicating PGI2 response in pregnant uterine arteries at various levels of Ouabain, wherein GABA is provided and Taurine is not—both without and with the provision of AII.
FIG. 1B is a graph of laboratory data indicating PGI2 response in pregnant uterine arteries at various levels of Ouabain, wherein both GABA and Taurine are provided—without and with the provision of AII.
FIG. 3A is a graph of laboratory data indicating PGI2 response in pregnant uterine arteries at various levels of GABA, wherein neither Taurine nor Ouabain is provided—without and with the provision of AII.
FIGS. 4A and 4B are graphs of laboratory data illustrating PGI2 response to taurine levels, GABA levels, and the provision of AII in pregnant uterine vessels with lower and higher Ouabain conditions, respectively.
FIGS. 5B is a graph of laboratory data illustrating PGI2 response in pregnant uterine arteries to the provision of various combinations of GABA, AII, and bicuculine.
(§1) FIG. 6 is a graph illustrating changes in PGI2 response versus basal levels, in both pregnant uterine vessels and pregnant systemic vessels, when the endothelium is removed.

[2] = tested on: pregnant systemic arteries; assay: PGI2 release/response in pregnant systemic arteries; type: cell-based
From the text: FIG. 3B is a graph of laboratory data indicating PGI2 response in pregnant systemic arteries at various levels of GABA, wherein neither Taurine nor Ouabain is provided—without and with the provision of AII.
FIGS. 5A is a graph of laboratory data illustrating PGI2 response in pregnant systemic arteries to the provision of various combinations of GABA, AII, and bicuculine.
as §1

[3] = tested on: intact nonpregnant systemic vessels; assay: PGI2 response in intact nonpregnant systemic vessels (GABA dose response curves); type: cell-based, sheep; settings: for PGI2 levels on addition of Nanomolar Ouabain: most concentrations of GABA
From the text: FIG. 2A is a graph of laboratory data indicating PGI2 response in intact nonpregnant systemic vessels at various levels of GABA, wherein neither Taurine nor Ouabain is provided without and with the provision of AII.
FIG. 2B is a graph of laboratory data indicating PGI2 response in intact nonpregnant systemic vessels at various levels of GABA, wherein neither Taurine nor AII is provided—without and with the provision of Ouabain.
FIG. 2C is a graph of laboratory data indicating PGI2 response in intact nonpregnant systemic vessels at various levels of GABA, wherein AII is provided and Taurine is not—without and with the provision of Ouabain.
In FIGS. 2A-2C, GABA dose response curves of systemic vessels in 18 day postpartum sheep are provided. These vessels are believed to be representative of non-pregnant normotensive systemic vessels. […] Accordingly, it appears that at least one of Taurine or EO (or the like) may be needed to up-regulate the GABA-a receptor to augment PGI2 levels in the presence of nanomolar ouabain, or may at least be substantially helpful to increase PGI2 levels.

[4] = cited from earlier work

CC(=O)Oc1ccccc1C(=O)O [aspirin]
resting blood pressure (Cyclooxygenase (COX)): does not substantially affect resting blood pressure

NCCS(=O)(=O)O [Taurine, 2-amino-ethane sulfonic acid]
overall PGI2 release with vs without Taurine ([1]; FIG. 1A vs 1B, regardless of AII presence): overall PGI2 release appears higher without Taurine

CN1CCc2cc3c(cc2[C@H]1[C@@H]1OC(=O)c2c1ccc1c2OCO1)OCO3 [bicuculine]
PGI2 release on blocking GABA-a receptors ([2]; FIG. 5A): reduced PGI2 release
PGI2 release on blocking GABA-a receptors ([1]; FIG. 5B, also when additional GABA was added (col. 5)): substantially reduced PGI2 release

Angiotensin II [AII]
PGI2 formation by presence or absence of Angiotensin II ([3]; FIG. 2A, exposed to GABA, without Taurine or EO): no significant PGI2 formation
PGI2 release on addition of AII ([3]; FIG. 2B vs 2C, in the presence of Ouabain, especially at higher GABA): substantially more PGI2 release
relationship between PGI2 release and AII presence ([2]; FIG. 3B, various GABA levels, no Taurine, no Ouabain, compared with uterine circuit): substantially inverted
PGI2 release in the presence of AII ([2]; FIG. 6, endothelium removed): increased
effect of presence or absence of AII on PGI2 release ([1]; FIG. 1A, GABA provided, without taurine, various levels of Ouabain): negligible effect on PGI2 release
PGI2 release difference responsive to presence or absence of AII ([1]; FIG. 3A, GABA concentrations of −7M, −6M, −5M): no significant PGI2 release difference
PGI2 release with AII vs without AII ([1]; FIG. 3A, most levels of GABA, no Taurine, no Ouabain): more PGI2 is released
PGI2 release on further addition of AII ([1]; FIG. 5B col. 4, bicuculine and GABA present): even further decreased PGI2
PGI2 release in the presence of AII ([1]; FIG. 6, endothelium removed): reduced

COc1ccc2c(c1)c(CC(=O)O)c(C)n2C(=O)c1ccc(Cl)cc1 [indomethacin]
resting blood pressure (Cyclooxygenase (COX)): does not substantially affect resting blood pressure

NCCCC(=O)O [GABA]
PGI2 response to GABA ([3]; FIG. 2A/2B, 18 day postpartum sheep, no Ouabain, no Taurine): no PGI2 response; also recorded: did not release significant PGI2
PGI2 release on exposure to GABA ([2]; absence of AII): increased PGI2 release; also recorded: responded to make PGI2
PGI2 release with GABA and AII ([1]; FIG. 4A, low levels of taurine and low Ouabain): PGI2 release increased
PGI2 release on addition of GABA ([1]; FIG. 5B col. 2, GABA alone, no AII): insignificant effect on PGI2 release
PGI2 release on addition of GABA ([1]; together with AII): increase PGI2; also recorded: increased PGI2 release
blood pressure ([4]; eHTN humans): lower blood pressure
blood pressure ([4]; normotensive patients): no effect to reduce blood pressure

C[C@@H]1O[C@@H](O[C@H]2C[C@@H](O)[C@]3(CO)[C@H]4[C@H](O)C[C@]5(C)[C@@H](C6=CC(=O)OC6)CC[C@]5(O)[C@@H]4CC[C@]3(O)C2)[C@H](O)[C@H](O)[C@H]1O [Ouabain]
PGI2 levels on addition of Nanomolar Ouabain ([3]; FIG. 2B, without AII, no Taurine): significant increase in PGI2 levels
PGI2 levels on addition of Nanomolar Ouabain ([3]; FIG. 2C, with AII, no Taurine): significant increase in PGI2 levels
PGI2 release with increase in Ouabain ([1]; FIGS. 4A/4B, Ouabain from −10M to −9M, low taurine, GABA approx. −7M): higher PGI2 release

NCC(CP(=O)(O)O)c1ccc(Cl)cc1 (stereo not shown) [phaclofen]
PGI2 release on GABA-b receptor blockade ([1]; experiments similar to FIGS. 5A/5B in pregnant vessels, data not shown): did not affect PGI2 release
